Assays:
Assay type in all cases: cell-based
breast cancer cell lines = test: proliferation assay, trypan blue exclusion; details: 96 h
Method: (§1) Fig. 2 ACK1 regulates breast cancer transcriptome, affecting genes implicated in cell cycle progression. A Chemical structure of (R)-9b. B Breast cancer cell lines were treated with either vehicle or (R)-9b overnight and cell lysates were subjected to immunoprecipitation using ACK1 antibody, followed by immunoblotting with pY284-ACK1 antibody. Lysates were also subjected to immunoblotting with total ACK1 and Actin antibodies, shown in the lower panels. […] C Breast cancer cell lines were treated with varying concentrations of (R)-9b for 96 h and the cell proliferation was measured using Trypan Blue exclusion method. […]
(§2) For proliferation assay, 5 × 10^4 cells were plated in 6-well plate and treated with either vehicle (DMSO) or varying concentrations of (R)-9b or palbociclib in complete media for 96 h and number of viable cells were counted by trypan blue exclusion assay. […] The cells were acquired using the BD FACSCalibur machine (BD Biosciences) and data was analyzed using FlowJo software. […] The data were analyzed using FlowJo software.
(§3) No data was excluded from the analysis. […] Data were expressed as the mean ± SEM. Data between two groups were analyzed with unpaired Student’s t tests using Graphpad Prism (Graphpad Software Inc, California, USA). […]

[1] = system: normal breast cell line, MCF10A; test: proliferation assay, trypan blue exclusion; details: Homo sapiens, MCF-10A, 96 h
Method: as §1, §2, §3

BT549 = test: proliferation assay, trypan blue exclusion; details: BT549 (lacking Rb), 96 h
Method: (§4) A–F Breast cancer cells were treated with either vehicle or (R)-9b for 48 h; cells were harvested and processed for cell cycle analysis using propidium iodide staining, followed by flow cytometry. G BT549 and H MDA-MB-468 cells were treated with varying drug concentrations of palbociclib or (R)-9b for 96 h and the cell viability assessed using trypan blue exclusion method. I BT549, and J MDA-MB-468 cells were treated with 1 µM palbociclib or (R)-9b for 48 h and subjected to cell cycle analysis using propidium iodide staining, followed by flow-cytometry. Palbociclib-resistant MDA-MB-231 (K) and HCC-1395 (L) were generated and treated with varying drug concentrations of palbociclib or (R)-9b for 96 h and the cell viability assessed using trypan blue exclusion method.
(§5) For proliferation assay, 5 × 10^4 cells were plated in 6-well plate and treated with either vehicle (DMSO) or varying concentrations of (R)-9b or palbociclib in complete media for 96 h and number of viable cells were counted by trypan blue exclusion assay. Breast cancer cell lines were treated with vehicle or varying concentrations of (R)-9b for 72 h. The cells were harvested, washed 2 times with PBS and incubated with 3 ul of Annexin V-FITC antibody according to the manufacturers protocol (BD Biosciences). Five µl Propidium iodide was used to stain necrotic cells. The cells were acquired using the BD FACSCalibur machine (BD Biosciences) and data was analyzed using FlowJo software. Cell cycle analysis was performed as mentioned earlier. Briefly, vehicle or (R)-9b (48 h) treated cells were harvested by trypsinization, washed 2 times with PBS, and fixed using chilled 70% Ethanol for 1 h, followed by 2 washes with PBS. The cell pellets were treated with 50 µl RNase A (100 µg/ml; Sigma) for 15 min at 37 °C and Propidium Iodide (PI; 50 µg/ml, Sigma) was added to these cells, followed by acquisition using BD FACS Canto-II or FACSCalibur machines. The data were analyzed using FlowJo software.

MDA-MB-468 = test: proliferation assay, trypan blue exclusion; details: MDA-MB-468 (lacking Rb), 96 h
Method: as §4, §5

[2] = system: pY88-H4 marks at CDC20, CCNB1 and CCNB2; test: ChIP-qPCR with pY88-H4 antibody at CDC20, CCNB1 and CCNB2 loci; details: breast cancer cell lines
Method: Fig. 4 ACK1 epigenetically modifies the chromatin landscape by depositing pY88-H4 activating marks, regulating cell cycle genes. A Breast cancer cell lines were treated with (R)-9b overnight and the cell lysates were subjected to immunoprecipitation using pY88-H4 antibody, followed by immunoblotting with H4 antibody. Lysates were also subjected to immunoblotting with total H4 and Actin antibodies, shown in the lower panels. […] B Venn diagrams summarizing the overlap between sites bound by pY88-H4 in vehicle treated and (R)-9b treated MDA-MB-453 cells. […] Breast cancer cells were subjected to ChIP using pY88-H4 antibody followed by qPCR for (D) CCNB1, (E) CCNB2, and (F) CDC20 genes. […]
Cell pellets were resuspended in RLB buffer and sonicated and the soluble chromatin was incubated with antibodies and Protein-G/A magnetic beads. […] The size and quality of the library was evaluated using the Agilent BioAnalyzer (Agilent Technologies, Inc., Santa Clara, CA), and the library was quantitated with the Kapa Library Quantification Kit. Each enriched DNA library was then sequenced on an Illumina NextSeq 500 sequencer to generate 40–50 million 75-base paired-end reads (Illumina, Inc., San Diego, CA). […]
Real-time quantitative PCR analyses were performed using the ABI PRISM 7900HT Sequence Detection System (Applied Biosystems) as described earlier. […]

IC50 (breast cancer cell lines): 0.25 to 1.22 µM
SMILES: CN1CCN(c2ccc(Nc3ncc(Cl)c(NC[C@H]4CCCO4)n3)cc2)CC1 [(R)-9b]
IC50 [1]: 1.49 µM
sensitivity (cell proliferation) (BT549): sensitive
sensitivity (cell proliferation) (MDA-MB-468): sensitive
pY88-H4 marks at CDC20, CCNB1 and CCNB2 gene loci (ChIP-qPCR) [2]: significantly compromised

— paper PMC10348910, “Epigenetic reprogramming of cell cycle genes by ACK1 promotes breast cancer resistance to CDK4/6 inhibitor” (Oncogene, 2023)
